Data reported in US20150051558A1, “COMPOSITION AND METHOD FOR CORNEAL PROLIFERATION” (UNIVERSITY OF CENTRAL FLORIDA RESEARCH FOUNDATION, INC., priority 2012, published 2015).
Entries after “also recorded” stand apart in the source; their conditions may differ.

Assays:
rat cornea [1] = assay: Experiment 1: BrdU staining of cornea after MS-818 ophthalmic drops; format: in vivo
Method: (§1) Surgeries were performed to remove the left lachrymal gland from sixteen rats. MS-818 was then administered via ophthalmic drop to both eyes of twelve of the rats divided into three dosage groups, 1 mg/ml, 3 mg/ml, and 10 mg/ml. The remaining four rats served as a control group, receiving drops of phosphate buffered saline. The compound was administered three times over a period of three days. BrdU was administered during this time via intra-peritoneal injection. Rats were euthanized seven days after the first compound administration and underwent perfusion. Eyes were sliced in twenty micron slices using a cryostat. The slices were mounted on glass slides. The slides were then stained with monoclonal mouse anti BrdU primary antibody to test for the incorporation of BrdU into nuclei. TRITC conjugated donkey anti mouse secondary antibody was used to detect the primary antibody. Slides were stained with DAPI to visualize the nuclei. Images were captured of the slices in 100× magnification under TRITC, DAPI and FITC fluorescence.

rat cornea [2] = assay: Experiment 2: BrdU staining of cornea after MS-818 ophthalmic drops; format: in vivo
Method: as §1, with “According to another example similar to experiment 1, surgeries” for “Surgeries”, “groups, 100 μg/ml, 300 μg/ml, and” for “groups,”, “1” for “1 mg/ml, 3 mg/ml, and 10”

CN1Cc2nc(N3CCCCC3)ncc2C1=O.O=C(O)/C=C\C(=O)O [MS-818, 2-piperadino-6-methyl-5-oxo-5,6-dihydro-(7H) pyrrole-[3,4-d]pyrimidine maleate]
proliferation in the non-injured eyes vs non-drug receiving control group (rat cornea [1]; ophthalmic drops, three dosage groups, preliminary results): marked increase in proliferation | BrdU positive signaling within the cornea (cell proliferation) (rat cornea [1]; rat, eye drop, high dosage (1 mg/ml), three times over three days, euthanized seven days after first administration, non surgical eye, FIG. 1B vs control FIG. 1A): significantly increased BrdU positive signaling | cell proliferation (BrdU staining) in cornea vs control animal (rat cornea [2]; eye drop 100 μg/ml, 300 μg/ml, 1 mg/ml, three times over three days, non surgical eye, FIG. 4): significant increase in cell proliferation over the control animal | number of nuclei positive for BrdU per field of view in the cornea (rat cornea [2]; eye drop, low, medium and high dose vs control, n=6, FIG. 5): significantly (p<0.05) higher than the control; also recorded: significant and dose dependent increase
